Assays:
Assay type in all cases: biochemical
Settings in all cases: WT-Trp = 100
[1] = molecular target: T1, Atlantic cod (Gadus morhua) trypsin I, wildtype, purified from Atlantic cod (WT-Trp), SEQ ID NO: 1 (Gadus morhua, UniProt P16049); test: Activity assay to determine kinetic constants, WT-Trp (purified)
T1 construct: from tissue
T1 sequence (P16049 20-241): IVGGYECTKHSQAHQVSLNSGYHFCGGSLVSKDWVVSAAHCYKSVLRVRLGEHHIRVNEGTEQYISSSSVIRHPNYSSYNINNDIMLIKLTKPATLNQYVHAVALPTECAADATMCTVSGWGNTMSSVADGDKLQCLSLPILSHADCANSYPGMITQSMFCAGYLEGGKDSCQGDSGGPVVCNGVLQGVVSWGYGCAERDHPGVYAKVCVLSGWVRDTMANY
Method: The following polypeptides were obtained or produced: • (a) Wildtype trypsin I purified from Atlantic cod (“WT-Tryp” or “wildtype”); • (b) Recombinantly expressed wildtype trypsin I of Atlantic cod (SEQ ID NO:1, “R-Tryp”); and • (c) Thirty-eight different mutated versions of trypsin I of Atlantic cod (i.e. mutated sequences of SEQ ID NO:1).
(§1) The substrate (Gly-Pro-Arg) was used at concentrations 0.005-0.15 mM in assay buffer containing 1% DMSO. 245 μL of substrate solutions were pipetted into a 96-well plate. The reaction was started by adding 5 μL of the sample mixture (above) and monitored at 410 nm in a SpectraMax plate reader. Kinetic measurement was performed every minute of a continuous 15-min run.

[2] = molecular target: T2, Atlantic cod (Gadus morhua) trypsin I, recombinant wildtype, EZA-001, SEQ ID NO: 1 (Gadus morhua, UniProt P16049); test: Activity assay to determine kinetic constants, EZA-001
T2 construct: made in house; host or cells: E. coli BL21 (DE3)
T2 sequence (P16049 20-241): T1 sequence (P16049 20-241)
Method: (§2) Polypeptides corresponding to the wildtype amino acid sequence of trypsin I from Atlantic cod and thirty-eight mutated versions thereof were produced using the methods described in Example A.
(§3) Activation of recombinant enzymes (approximately 0.01 mg/ml) was achieved by adding wild type trypsin (0.2 U/ml) at room temperature and incubate for 24 hours. The mixture was made in 20 mM Tris-HCl, 1 mM CaCl2, 50% glycerol, pH 8.0 to a final volume of 200 μl.
as §1

[3] = tested on: Atlantic cod (Gadus morhua) trypsin I variant EZA-002, N244S, Y245N, S87K in SEQ ID NO: 1 (N240S, Y241N, S88K in SEQ ID NO: 2); test: Activity assay to determine kinetic constants, EZA-002
Method: as §2, §3, §1

[4] = molecular target: T3, Atlantic cod (Gadus morhua) trypsin I variant EZA-003, K154T in SEQ ID NO: 1 (K152T in SEQ ID NO: 2) (Gadus morhua, UniProt P16049, K152T); test: Activity assay to determine kinetic constants, EZA-003
T3 construct: made in house; host or cells: E. coli BL21 (DE3)
Method: as §2, §3, §1

[5] = tested on: Atlantic cod (Gadus morhua) trypsin I variant EZA-004, K154L in SEQ ID NO: 1 (K152L in SEQ ID NO: 2); test: Activity assay to determine kinetic constants, EZA-004
Method: as §2, §3, §1

[6] = tested on: Atlantic cod (Gadus morhua) trypsin I variant EZA-005, K154V in SEQ ID NO: 1 (K152V in SEQ ID NO: 2); test: Activity assay to determine kinetic constants, EZA-005
Method: as §2, §3, §1

[7] = molecular target: T4, Atlantic cod (Gadus morhua) trypsin I variant EZA-006, K154E in SEQ ID NO: 1 (K152E in SEQ ID NO: 2) (Gadus morhua, UniProt P16049, K152E); test: Activity assay to determine kinetic constants, EZA-006
T4 construct: made in house; host or cells: E. coli BL21 (DE3)
Method: as §2, §3, §1

[8] = tested on: Atlantic cod (Gadus morhua) trypsin I variant EZA-007, N98T in SEQ ID NO: 1 (N99T in SEQ ID NO: 2); test: Activity assay to determine kinetic constants, EZA-007
Method: as §2, §3, §1

[9] = tested on: Atlantic cod (Gadus morhua) trypsin I variant EZA-008, I99L in SEQ ID NO: 1 (I100L in SEQ ID NO: 2); test: Activity assay to determine kinetic constants, EZA-008
Method: as §2, §3, §1

[10] = tested on: Atlantic cod (Gadus morhua) trypsin I variant EZA-009, L185G, P225Y in SEQ ID NO: 1 (L184G, P221Y in SEQ ID NO: 2); test: Activity assay to determine kinetic constants, EZA-009
Method: as §2, §3, §1

T3 sequence (P16049 20-241 K152T): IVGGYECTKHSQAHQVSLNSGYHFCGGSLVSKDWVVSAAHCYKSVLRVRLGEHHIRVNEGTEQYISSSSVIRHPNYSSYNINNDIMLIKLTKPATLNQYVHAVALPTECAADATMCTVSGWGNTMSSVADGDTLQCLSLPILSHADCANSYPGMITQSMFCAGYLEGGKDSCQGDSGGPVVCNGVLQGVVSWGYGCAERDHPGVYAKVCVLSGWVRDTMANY
T4 sequence (P16049 20-241 K152E): as the sequence (P16049 20-241 K152T) above, with T133E counted along it

Gly-Pro-Arg was tested, and the “Vmax (Kcat), Relative to WT-Trp” value [1] was 100, the “Vmax, Relative to WT-Trp” value [2] was 99 and the “Vmax, Relative to WT-Trp” value [3] was 99. For the same substance, the “Vmax, Relative to WT-Trp” value [4] was 96, the “Vmax, Relative to WT-Trp” value [5] was 82 and the “Vmax, Relative to WT-Trp” value [6] was 96. The “Vmax, Relative to WT-Trp” value [7] was 98, the “Vmax, Relative to WT-Trp” value [8] was 99 and the “Vmax, Relative to WT-Trp” value [9] was 95. For the same substance, the “Vmax, Relative to WT-Trp” value [10] was 98.

From patent US20170107503A1, “NOVEL METHODS, POLYPEPTIDES AND USES THEREOF” (priority 2014, published 2017)
